Measured values taken from PubChem BioAssay AID256 (DTP/NCI, 2004).
“And” between values parts separate entries of the source, which are not always exact repeats. Equal values may be shown once. Inconclusive results and toxic doses are left out. The calls were made as follows: active = survival T/C of 150% or more; inactive = T/C below 125% in these data.

Test system: CD2F1 mice, L1210 leukemia ip, survival T/C
Assay: NCI In Vivo Anticancer Drug Screen. Data for tumor model L1210 Leukemia (intraperitoneal) in CD2F1 (CDF1) mice
Details: higher = longer survival
Procedure, shortened: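 Antitumor effect is scored in animals hosting a serially transplanted tumor. Values compare compound-dosed animals against vehicle-only controls as a simple quotient.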

[1] = endpoint: mean survival time, dose: 100.0 mg/kg/injection, schedule: Q04DX003 (ip), vehicle: saline with Tween-80
[2] = endpoint: mean survival time, dose: 200.0 mg/kg/injection, schedule: Q04DX003 (ip), vehicle: saline with Tween-80
[3] = endpoint: mean survival time, dose: 400.0 mg/kg/injection, schedule: Q04DX003 (ip), vehicle: saline with Tween-80
[4] = endpoint: mean survival time, dose: 100.0 mg/kg/injection, schedule: Q01DX001 (ip), vehicle: saline with Tween-80
[5] = endpoint: mean survival time, dose: 200.0 mg/kg/injection, schedule: Q01DX001 (ip), vehicle: saline with Tween-80
[6] = endpoint: mean survival time, dose: 400.0 mg/kg/injection, schedule: Q01DX001 (ip), vehicle: saline with Tween-80
[7] = endpoint: mean survival time, dose: 100.0 mg/kg/injection, schedule: Q01DX009 (ip), vehicle: saline with Tween-80
[8] = endpoint: mean survival time, dose: 200.0 mg/kg/injection, schedule: Q01DX009 (ip), vehicle: saline with Tween-80
[9] = endpoint: mean survival time, dose: 400.0 mg/kg/injection, schedule: Q01DX009 (ip), vehicle: saline with Tween-80
[10] = endpoint: mean survival time, dose: 50.0 mg/kg/injection, schedule: Q01DX009 (ip), vehicle: Klucel (hydroxypropylcellulose) (HPC)
[11] = endpoint: mean survival time, dose: 100.0 mg/kg/injection, schedule: Q01DX009 (ip), vehicle: Klucel (hydroxypropylcellulose) (HPC)
[12] = endpoint: mean survival time, dose: 100.0 mg/kg/injection, schedule: Q04DX002 (ip), vehicle: saline
[13] = endpoint: mean survival time, dose: 200.0 mg/kg/injection, schedule: Q04DX002 (ip), vehicle: saline
[14] = endpoint: mean survival time, dose: 100.0 mg/kg/injection, schedule: Q04DX003 (ip), vehicle: saline

Measured: T/C

CC1(O)Nc2nc3c(ncn3C3OC(CO)C(O)C3O)c(=O)n2C1O (stereo not drawn)
inactive: endpoint: mean survival time, dose: 12.5 mg/kg/injection, schedule: Q01DX005 (ip), vehicle: water 106 % of control | endpoint: mean survival time, dose: 25.0 mg/kg/injection, schedule: Q01DX005 (ip), vehicle: water 95 % of control | endpoint: mean survival time, dose: 50.0 mg/kg/injection, schedule: Q01DX005 (ip), vehicle: water 93 % of control | endpoint: mean survival time, dose: 100.0 mg/kg/injection, schedule: Q01DX005 (ip), vehicle: water 101 % of control | endpoint: mean survival time, dose: 200.0 mg/kg/injection, schedule: Q01DX005 (ip), vehicle: water 95 % of control

COc1cc(C=O)ccc1OCc1ccccc1
inactive: [1] 106 % of control | [2] 95 % of control | [3] 113 % of control

O=C(O/N=C(/CBr)c1ccccc1)c1ccccc1
inactive: endpoint: mean survival time, dose: 75.0 mg/kg/injection, schedule: Q01DX001 (ip), vehicle: other 101 % of control | endpoint: mean survival time, dose: 150.0 mg/kg/injection, schedule: Q01DX001 (ip), vehicle: other 97 % of control | endpoint: mean survival time, dose: 300.0 mg/kg/injection, schedule: Q01DX001 (ip), vehicle: other 103 % of control

CC(C)(C)/[N+]([O-])=N/O
inactive: endpoint: mean survival time, dose: 75.0 mg/kg/injection, schedule: Q01DX001 (ip), vehicle: saline 101 % of control

COc1cc(/C=C2\NC(=O)NC2=O)ccc1O
inactive: [4] 94 % of control | [5] 88 % of control | [6] 90 % of control

c1ccc2nc3ccccc3cc2c1
inactive: [7] 101 % of control | [8] 103 % of control

O=C(O)C1=NN(c2ccc(S(=O)(=O)O)cc2)C(=O)C1
inactive: [7] 96 % of control | [8] 92 % of control | [9] 92 % of control

CC12OC3(C)C4C(O)C1C1(C)OC4(C)C3C(O)C21 (stereo not drawn)
inactive: endpoint: mean survival time, dose: 100.0 mg/kg/injection, schedule: Q01DX009 (ip), vehicle: saline 96 % of control | endpoint: mean survival time, dose: 200.0 mg/kg/injection, schedule: Q01DX009 (ip), vehicle: saline 102 % of control | endpoint: mean survival time, dose: 400.0 mg/kg/injection, schedule: Q01DX009 (ip), vehicle: saline 98 % of control

O=C(N/N=C/c1ccc(Cl)cc1Cl)c1ccccc1
inactive: [10] 110 % of control | [11] 103 % of control | endpoint: mean survival time, dose: 200.0 mg/kg/injection, schedule: Q01DX009 (ip), vehicle: Klucel (hydroxypropylcellulose) (HPC) 86 % of control

COC(=O)c1csc(NC2OC(CO)C(O)C2O)n1 (stereo not drawn)
inactive: endpoint: median survival time, dose: 45.9 mg/kg/injection, schedule: Q01DX005 (ip), vehicle: saline 100 % of control | endpoint: median survival time, dose: 91.8 mg/kg/injection, schedule: Q01DX005 (ip), vehicle: saline 100 % of control | endpoint: median survival time, dose: 183.6 mg/kg/injection, schedule: Q01DX005 (ip), vehicle: saline 97 % of control

CCOc1ccccc1C(=O)OC(CN(CC)CC)c1ccccc1 (stereo not drawn)
inactive: [12] 95 % of control | [13] 95 % of control

Cc1cc(C)c(C(=O)C(=S)N2CCOCC2)c(C)c1
inactive: endpoint: mean survival time, dose: 100.0 mg/kg/injection, schedule: Q04DX003 (ip), vehicle: acetone 98 % of control | endpoint: mean survival time, dose: 200.0 mg/kg/injection, schedule: Q04DX003 (ip), vehicle: acetone 104 % of control | endpoint: mean survival time, dose: 400.0 mg/kg/injection, schedule: Q04DX003 (ip), vehicle: acetone 93 % of control

O=S1(=O)CCC2C1C1(Cl)C(Cl)=C(Cl)C2(Cl)C1(Cl)Cl (stereo not drawn)
inactive: endpoint: mean survival time, dose: 12.5 mg/kg/injection, schedule: Q01DX009 (ip), vehicle: saline sonified 104 % of control | endpoint: mean survival time, dose: 12.5 mg/kg/injection, schedule: Q04DX003 (ip), vehicle: saline with Tween-80 103 % of control | endpoint: mean survival time, dose: 25.0 mg/kg/injection, schedule: Q01DX009 (ip), vehicle: saline sonified 103 % of control | endpoint: mean survival time, dose: 25.0 mg/kg/injection, schedule: Q04DX003 (ip), vehicle: saline with Tween-80 97 % of control | endpoint: mean survival time, dose: 50.0 mg/kg/injection, schedule: Q04DX003 (ip), vehicle: saline with Tween-80 98 % of control

CC(=O)Nc1cccc(Cl)c1
inactive: [4] 92 % of control | [7] 106 % of control | [1] 98 % of control and 103 % of control | [5] 100 % of control | [8] 96 % of control | [2] 98 % of control and 116 % of control | [6] 94 % of control | [9] 91 % of control | [3] 94 % of control and 109 % of control

COC1CC(C)OC(OC2C(C)/C=C/C(=O)OC(C)C(COC3OC(C)C(O)C(OC)C3OC)C3OC3/C=C/C(=O)C(C)(O)CC2C)C1O (stereo not drawn)
inactive: endpoint: mean survival time, dose: 125.0 mg/kg/injection, schedule: Q01DX001 (ip), vehicle: saline sonified 100 % of control | endpoint: mean survival time, dose: 250.0 mg/kg/injection, schedule: Q01DX001 (ip), vehicle: saline sonified 101 % of control | endpoint: mean survival time, dose: 500.0 mg/kg/injection, schedule: Q01DX001 (ip), vehicle: saline sonified 95 % of control

O=P(Nc1ccccc1)(Oc1c(F)c(F)c(F)c(F)c1F)N(CCCl)CCCl (stereo not drawn)
inactive: endpoint: mean survival time, dose: 62.5 mg/kg/injection, schedule: Q01DX001 (ip), vehicle: other 87 % of control | endpoint: mean survival time, dose: 125.0 mg/kg/injection, schedule: Q01DX001 (ip), vehicle: other 107 % of control | endpoint: mean survival time, dose: 250.0 mg/kg/injection, schedule: Q01DX001 (ip), vehicle: other 96 % of control | endpoint: mean survival time, dose: 500.0 mg/kg/injection, schedule: Q01DX001 (ip), vehicle: other 96 % of control

C=CCON(C)c1ccccc1
inactive: [7] 94 % of control | [8] 90 % of control | [9] 99 % of control

COc1ccc(NC(=O)CCl)cc1
inactive: endpoint: mean survival time, dose: 25.0 mg/kg/injection, schedule: Q01DX009 (ip), vehicle: Klucel (hydroxypropylcellulose) (HPC) 96 % of control and 98 % of control | [10] 96 % of control and 98 % of control | [11] 96 % of control and 104 % of control

N=C(N)Sc1ccccn1
inactive: endpoint: mean survival time, dose: 12.5 mg/kg/injection, schedule: Q01DX009 (ip), vehicle: suspension in saline 98 % of control | endpoint: mean survival time, dose: 25.0 mg/kg/injection, schedule: Q01DX009 (ip), vehicle: suspension in saline 108 % of control | endpoint: mean survival time, dose: 50.0 mg/kg/injection, schedule: Q01DX009 (ip), vehicle: suspension in saline 93 % of control | endpoint: mean survival time, dose: 100.0 mg/kg/injection, schedule: Q01DX009 (ip), vehicle: suspension in saline 93 % of control | endpoint: mean survival time, dose: 200.0 mg/kg/injection, schedule: Q01DX009 (ip), vehicle: suspension in saline 87 % of control | endpoint: mean survival time, dose: 400.0 mg/kg/injection, schedule: Q01DX009 (ip), vehicle: suspension in saline 90 % of control

NC(=O)c1nc(C2OC(CO)C(O)C2O)cs1 (stereo not drawn)
inactive: endpoint: median survival time, dose: 50.0 mg/kg/injection, schedule: Q01DX005 (ip), vehicle: water 100 % of control | endpoint: median survival time, dose: 100.0 mg/kg/injection, schedule: Q01DX005 (ip), vehicle: water 102 % of control | endpoint: median survival time, dose: 200.0 mg/kg/injection, schedule: Q01DX005 (ip), vehicle: water 98 % of control | endpoint: median survival time, dose: 400.0 mg/kg/injection, schedule: Q01DX005 (ip), vehicle: water 101 % of control

O=c1c2ccccc2c(-c2ccccc2)nn1Cc1ccccc1
inactive: [1] 103 % of control | [2] 108 % of control | [3] 98 % of control

C[n+]1ccncc1
inactive: endpoint: mean survival time, dose: 100.0 mg/kg/injection, schedule: Q01DX001 (ip), vehicle: saline 102 % of control | endpoint: mean survival time, dose: 200.0 mg/kg/injection, schedule: Q01DX001 (ip), vehicle: saline 102 % of control | endpoint: mean survival time, dose: 400.0 mg/kg/injection, schedule: Q01DX001 (ip), vehicle: saline 104 % of control

CC(C)COCCCN
inactive: [14] 98 % of control

CC1CC(C)(C)OC(C(C)(C)C)O1 (stereo not drawn)
inactive: endpoint: mean survival time, dose: 50.0 mg/kg/injection, schedule: Q04DX002 (ip), vehicle: saline 92 % of control | [12] 100 % of control | [13] 103 % of control

O=[As](O)(O)CC(Br)CBr (stereo not drawn)
inactive: [7] 100 % of control | [8] 94 % of control

COc1cc(O)cc(OC)c1
inactive: endpoint: mean survival time, dose: 25.0 mg/kg/injection, schedule: Q04DX003 (ip), vehicle: saline 103 % of control | endpoint: mean survival time, dose: 50.0 mg/kg/injection, schedule: Q04DX003 (ip), vehicle: saline 102 % of control | [14] 100 % of control

O=S(=O)(O)O
inactive: endpoint: mean survival time, dose: 100.0 mg/kg/injection, schedule: Q01DX009 (ip), vehicle: saline sonified 100 % of control | [1] 96 % of control | endpoint: mean survival time, dose: 200.0 mg/kg/injection, schedule: Q01DX009 (ip), vehicle: saline sonified 97 % of control | endpoint: mean survival time, dose: 400.0 mg/kg/injection, schedule: Q01DX009 (ip), vehicle: saline sonified 97 % of control

COC(=O)C(Cl)C(Cl)c1ccccc1 (stereo not drawn)
inactive: [7] 100 % of control | [8] 105 % of control | [9] 101 % of control
